Experimental data as given in patent US10738056B2 (Aduro BioTech, Inc., priority 2017, dated 2020).

Target: Human cGAS amino acids 155-522 (Homo sapiens (Human), UniProt Q8N884)
Experiment: cGAS biochemical activity assay (ATP remaining, Kinase-Glo Max luminescence)
Details: human cGAS 155-522, ATP remaining (Kinase-Glo Max); read-out: cGAS IC50

Human cGAS amino acids 155-522, sequence (Q8N884 157-522): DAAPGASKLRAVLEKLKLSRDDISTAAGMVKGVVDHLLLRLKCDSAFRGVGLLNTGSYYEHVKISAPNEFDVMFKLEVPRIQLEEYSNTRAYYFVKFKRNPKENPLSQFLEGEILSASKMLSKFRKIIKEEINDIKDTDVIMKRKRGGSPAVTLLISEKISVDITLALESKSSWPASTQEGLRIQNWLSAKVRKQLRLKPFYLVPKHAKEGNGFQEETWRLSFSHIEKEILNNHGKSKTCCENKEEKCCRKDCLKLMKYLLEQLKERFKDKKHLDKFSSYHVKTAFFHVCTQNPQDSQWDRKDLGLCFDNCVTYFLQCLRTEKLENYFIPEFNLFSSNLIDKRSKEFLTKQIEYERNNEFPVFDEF

Structure (SMILES) | IC50 [µM]
COc1cccc2oc(-c3c(C(C)=O)[nH]c4c(-c5ccccc5)c(C(F)(F)F)nn4c3=O)nc12 [Compound C1144, 5-acetyl-6-(4-methoxybenzo[d]oxazol-2-yl)-3-phenyl-2-(trifluoromethyl)pyrazolo[1,5-a]pyrimidin-7(4H)-one] | 20 to 250
Cc1[nH]c2c(-c3ccccc3)c(C(F)(F)F)nn2c(=O)c1CC(=O)Nc1ccccc1 [Compound B1005] | 20 to 250
Cc1[nH]c2c(-c3ccccc3)c(C(F)(F)F)nn2c(=O)c1C(=O)Nc1ccnnc1 [Compound A1018, 5-methyl-7-oxo-3-phenyl-N-(pyridazin-4-yl)-2-(trifluoromethyl)-4,7-dihydropyrazolo[1,5-a]pyrimidine-6-carboxamide] | 20 to 250
COC1CCCCC1NC(=O)c1c(C)[nH]c2c(-c3ccccc3)c(C(F)(F)F)nn2c1=O (single isomer, unassigned) [Compound A1085, N-(2-methoxycyclohexyl)-5-methyl-7-oxo-3-phenyl-2-(trifluoromethyl)-4,7-dihydropyrazolo[1,5-a]pyrimidine-6-carboxamide] | 20 to 250
Cc1ccc(NC(=O)c2c(C)[nH]c3c(-c4ccccc4)c(C(F)(F)F)nn3c2=O)cc1 [Compound A1012, 5-methyl-7-oxo-3-phenyl-N-(p-tolyl)-2-(trifluoromethyl)-4,7-dihydropyrazolo[1,5-a]pyrimidine-6-carboxamide] | 20 to 250
Cc1[nH]c2c(-c3ccccc3)c(C(F)(F)F)nn2c(=O)c1C(=O)Nc1cccnc1 [Compound A1005, 5-methyl-7-oxo-3-phenyl-N-(pyridin-3-yl)-2-(trifluoromethyl)-4,7-dihydropyrazolo[1,5-a]pyrimidine-6-carboxamide] | 20 to 250
Cc1[nH]c2c(-c3ccccc3)c(C(F)(F)F)nn2c(=O)c1C(=O)Nc1ccccc1OC1CCCC1 [Compound A1044, N-(2-(cyclopentyloxy)phenyl)-5-methyl-7-oxo-3-phenyl-2-(trifluoromethyl)-4,7-dihydropyrazolo[1,5-a]pyrimidine-6-carboxamide] | 20 to 250
COCc1[nH]c2c(-c3ccccc3)c(C(=O)O)nn2c(=O)c1-c1nc2c(OC)cccc2o1 [Compound C1090, 6-(4-methoxybenzo[d]oxazol-2-yl)-5-(methoxymethyl)-7-oxo-3-phenyl-4,7-dihydropyrazolo[1,5-a]pyrimidine-2-carboxylic acid] | 20 to 250
COc1cccc2c1nc(-c1c(C)[nH]c3c(-c4ccccc4)c(C(F)(F)F)nn3c1=O)n2C [Compound C1087, 6-(4-methoxy-1-methyl-1H-benzo[d]imidazol-2-yl)-5-methyl-3-phenyl-2-(trifluoromethyl)pyrazolo[1,5-a]pyrimidin-7(4H)-one] | 20 to 250
Cc1[nH]c2c(C3CC3)c(C(F)(F)F)nn2c(=O)c1Cc1ccccc1 [Compound C1264, 6-benzyl-3-cyclopropyl-5-methyl-2-(trifluoromethyl)pyrazolo[1,5-a]pyrimidin-7(4H)-one] | > 250
COc1cccc(NC(=O)c2c(C)[nH]c3c(-c4ccccc4)c(C(F)(F)F)nn3c2=O)c1Br [Compound A1131, N-(2-bromo-3-methoxyphenyl)-5-methyl-7-oxo-3-phenyl-2-(trifluoromethyl)-4,7-dihydropyrazolo[1,5-a]pyrimidine-6-carboxamide] | 20 to 250
COCCn1c(-c2c(C)[nH]c3c(-c4ccccc4)c(C(F)(F)F)nn3c2=O)nc2c(OC)cccc21 [Compound C1200, 6-(4-methoxy-1-(2-methoxyethyl)-1H-benzo[d]imidazol-2-yl)-5-methyl-3-phenyl-2-(trifluoromethyl)pyrazolo[1,5-a]pyrimidin-7(4H)-one] | 20 to 250
Cc1[nH]c2c(-c3ccccc3)c(C(F)(F)F)nn2c(=O)c1-c1nc(C(N)=O)co1 [Compound C1102, 2-(5-methyl-7-oxo-3-phenyl-2-(trifluoromethyl)-4,7-dihydropyrazolo[1,5-a]pyrimidin-6-yl)oxazole-4-carboxamide] | 20 to 250
COc1cccc2oc(-c3c(C)[nH]c4c(-c5ccccc5)c(OC5CCOCC5)nn4c3=O)nc12 [Compound C1080, 6-(4-methoxybenzo[d]oxazol-2-yl)-5-methyl-3-phenyl-2-((tetrahydro-2H-pyran-4-yl)oxy)pyrazolo[1,5-a]pyrimidin-7(4H)-one] | 20 to 250
COc1cccn2nc(-c3c(C)[nH]c4c(-c5ccccc5)c(C(F)(F)F)nn4c3=O)nc12 [Compound C1110, 6-(8-methoxy-[1,2,4]triazolo[1,5-a]pyridin-2-yl)-5-methyl-3-phenyl-2-(trifluoromethyl)pyrazolo[1,5-a]pyrimidin-7(4H)-one] | 20 to 250
Cc1[nH]c2c(-c3ccccc3)c(C(F)(F)F)nn2c(=O)c1C(=O)N[C@H]1CCN(C(=O)OC(C)(C)C)C1 [Compound A1034, tert-butyl (S)-3-(5-methyl-7-oxo-3-phenyl-2-(trifluoromethyl)-4,7-dihydropyrazolo[1,5-a]pyrimidine-6-carboxamido)pyrrolidine-1-carboxylate] | > 250
Cc1noc(C)c1NC(=O)c1c(C)[nH]c2c(-c3ccccc3)c(C(F)(F)F)nn2c1=O [Compound A1019, N-(3,5-dimethylisoxazol-4-yl)-5-methyl-7-oxo-3-phenyl-2-(trifluoromethyl)-4,7-dihydropyrazolo[1,5-a]pyrimidine-6-carboxamide] | > 250
COc1nc(NC(C)=O)nc2oc(-c3c(C)[nH]c4c(-c5ccccc5)c(C(F)(F)F)nn4c3=O)nc12 [Compound C1150, N-(7-methoxy-2-(5-methyl-7-oxo-3-phenyl-2-(trifluoromethyl)-4,7-dihydropyrazolo[1,5-a]pyrimidin-6-yl)oxazolo[5,4-d]pyrimidin-5-yl)acetamide] | 20 to 250
COc1c(F)cccc1NC(=O)c1c(C)[nH]c2c(-c3ccccc3)c(C(F)(F)F)nn2c1=O [Compound A1137, N-(3-fluoro-2-methoxyphenyl)-5-methyl-7-oxo-3-phenyl-2-(trifluoromethyl)-4,7-dihydropyrazolo[1,5-a]pyrimidine-6-carboxamide] | 20 to 250
Cc1[nH]c2c(-c3ccccc3)c(C(F)(F)F)nn2c(=O)c1C(=O)N1CCCC1 [Compound A1009, 5-methyl-3-phenyl-6-(pyrrolidine-1-carbonyl)-2-(trifluoromethyl)pyrazolo[1,5-a]pyrimidin-7(4H)-one] | > 250
Cc1[nH]c2c(-c3ccccc3)c(C(F)(F)F)nn2c(=O)c1C(=O)N[C@H]1CCNC1 [Compound A1035, (S)-5-methyl-7-oxo-3-phenyl-N-(pyrrolidin-3-yl)-2-(trifluoromethyl)-4,7-dihydropyrazolo[1,5-a]pyrimidine-6-carboxamide] | > 250
Cc1[nH]c2c(-c3ccccc3)c(C(F)(F)F)nn2c(=O)c1C(=O)Nc1ccccc1N1CCCC1 [Compound A1054, 5-methyl-7-oxo-3-phenyl-N-(2-(pyrrolidin-1-yl)phenyl)-2-(trifluoromethyl)-4,7-dihydropyrazolo[1,5-a]pyrimidine-6-carboxamide] | 20 to 250
COc1ccccc1-c1c(C(F)(F)F)nn2c(=O)c(-c3nc4c(OC)cccc4o3)c(C)[nH]c12 [Compound C1086, 6-(4-methoxybenzo[d]oxazol-2-yl)-3-(2-methoxyphenyl)-5-methyl-2-(trifluoromethyl)pyrazolo[1,5-a]pyrimidin-7(4H)-one] | > 250
Cc1cccc(-c2c(C)[nH]c3c(-c4ccccc4)c(C(F)(F)F)nn3c2=O)c1 [Compound C1002, 5-methyl-3-phenyl-6-(m-tolyl)-2-(trifluoromethyl)pyrazolo[1,5-a]pyrimidin-7(4H)-one] | 20 to 250

The remaining lines, values ahead:

IC50 [µM] | Structure (SMILES)
20 to 250 | Cc1[nH]c2c(-c3ccccc3)c(C(F)(F)F)nn2c(=O)c1-c1nnc(CC2CCN(C)CC2)o1 [Compound D1065, 5-methyl-6-(5-((1-methylpiperidin-4-yl)methyl)-1,3,4-oxadiazol-2-yl)-3-phenyl-2-(trifluoromethyl)pyrazolo[1,5-a]pyrimidin-7(4H)-one]
20 to 250 | Cc1[nH]c2c(-c3ccccc3)c(C(F)(F)F)nn2c(=O)c1Cc1nnc(C2CCCC2)o1 [Compound D1034, 6-((5-cyclopentyl-1,3,4-oxadiazol-2-yl)methyl)-5-methyl-3-phenyl-2-(trifluoromethyl)pyrazolo[1,5-a]pyrimidin-7(4H)-one]
20 to 250 | Cc1[nH]c2c(-c3ccccc3)c(C(F)(F)F)nn2c(=O)c1-c1nnc(C2CCCN(C(=O)OC(C)(C)C)C2)o1 (centres unmarked) [Compound D1031, tert-butyl 3-(5-(5-methyl-7-oxo-3-phenyl-2-(trifluoromethyl)-4,7-dihydropyrazolo[1,5-a]pyrimidin-6-yl)-1,3,4-oxadiazol-2-yl)piperidine-1-carboxylate]
20 to 250 | Cc1[nH]c2c(-c3ccccc3)c(C(F)(F)F)nn2c(=O)c1-c1nnc(C2CCCCN2C(=O)OC(C)(C)C)o1 (centres unmarked) [Compound D1045, tert-butyl 2-(5-(5-methyl-7-oxo-3-phenyl-2-(trifluoromethyl)-4,7-dihydropyrazolo[1,5-a]pyrimidin-6-yl)-1,3,4-oxadiazol-2-yl)piperidine-1-carboxylate]
20 to 250 | Cc1nnc(-c2c(C)[nH]c3c(-c4ccccc4)c(C(F)(F)F)nn3c2=O)o1 [Compound D1001, 5-methyl-6-(5-methyl-1,3,4-oxadiazol-2-yl)-3-phenyl-2-(trifluoromethyl)pyrazolo[1,5-a]pyrimidin-7(4H)-one]
20 to 250 | Cc1[nH]c2c(-c3ccccc3)c(C(F)(F)F)nn2c(=O)c1Cc1nnc(C2CCCCC2)o1 [Compound D1035, 6-((5-cyclohexyl-1,3,4-oxadiazol-2-yl)methyl)-5-methyl-3-phenyl-2-(trifluoromethyl)pyrazolo[1,5-a]pyrimidin-7(4H)-one]
< 20 | Cc1[nH]c2c(-c3ccccc3)c(C(F)(F)F)nn2c(=O)c1-c1nnc(C(N)=O)o1 [Compound D1066, 5-(5-methyl-7-oxo-3-phenyl-2-(trifluoromethyl)-4,7-dihydropyrazolo[1,5-a]pyrimidin-6-yl)-1,3,4-oxadiazole-2-carboxamide]
20 to 250 | Cc1[nH]c2c(-c3ccccc3)c(C(F)(F)F)nn2c(=O)c1-c1nnc(C(C)C)o1 [Compound D1005, 6-(5-isopropyl-1,3,4-oxadiazol-2-yl)-5-methyl-3-phenyl-2-(trifluoromethyl)pyrazolo[1,5-a]pyrimidin-7(4H)-one]
